According to PMC8856110, “Comparative chemical and biological hydrolytic stability of homologous esters and isosteres” (Journal of Enzyme Inhibition and Medicinal Chemistry, 2022):
Like-named read-outs stand apart in the source and are kept apart here.

Experiments:
[1] = Hydrolytic study using rat liver microsomes; assay type: in vitro ADME; details: male, Wistar, 1 mg/mL microsomal fraction, absence of cofactor, 37 °C, read-out: Hydrolysis t1/2 Rat liver microsomes
Method: Rat liver microsomes were obtained from male Wistar rats (280–330 g) and prepared according to the methodology described by Cabrera and co-workers[17]. After obtaining rat liver microsomes, the protein quantification was done by a bicinchoninic acid assay using a commercial protein determination kit obtained from Sigma-Aldrich (St Louis MO, USA)[18]. […] The reaction was stopped by adding organic solvents at ice-cold temperature (i.e., 500 µL of methanol and 500 µL of acetonitrile).
(ii) Compounds 8–9: 0–15 min. A:B 40:60 v/v. (iii) Compounds 13–16: 0–4 min. […] A:B 60:40 v/v.
Given those results, we decided to study the comparative metabolic behaviour of the esters 1 and 2, 5 and 6, 11 and 12, using another biological matrix rich in carboxylesterases. Therefore, the kinetics of hydrolysis was established using rat liver microsomes in the absence of cofactor in order to prevent eventual oxidative metabolic reactions catalysed by CYP450 or FMO.

[2] = Rat plasma hydrolytic study; details: for half-life at 500 μM: male, Wistar, rat, rat plasma (80% in phosphate buffer), pH 7.4
Method: (§1) Rat plasma was obtained from male Wistar rats’ blood and diluted in phosphate buffer (pH 7.4) to obtain a final plasma concentration of 80%. […] The sample was incubated at 37 °C for 5, 10, 20, and 30 min, under stirring. At the end of the incubation time, the reaction was stopped by adding methanol (500 μL) and acetonitrile (500 μL), both in ice-cold temperature. The mixture was centrifuged at 13.500 rpm for 15 min at 4 °C. The organic phase was transferred to a microtube, and the IS (1.25 µL) was added. Finally, the samples were filtered through PVDF syringe filters (Millex®: 0.22 µm pore size) and analysed by HPLC[16].
(§2) A Shimadzu Prominence HPLC system (Shimadzu, Tokyo, Japan) consisting of a UV/VIS Photodiode Array Detector (SPD-M20A), a binary pump (LC-20AD), a vacuum degasser (DGU-20A5), and an autosampler (SIL-20A) was used for analyses. The Chromatographic separation was achieved using a reversed phase (Kromasil® C18 HPLC Column: particle size 5 µm, L × I.D. 250 × 4.6 mm) preceded by a guard column (Phenomenex® C18: 4 × 3 mm). The column was held at ambient temperature (22 ± 2 °C). For the selection of the wavelength, the diode array-detector was used. To avoid interference with impurities, the longest suitable wavelength was chosen to evaluate the chromatograms, which allowed for sensitivity. The mobile phase was a combination of eluent A (0.1% formic acid) and eluent B (acetonitrile). Three mobile phases were carried out using an injection volume of 20 µL and an flow rate set at 1.0 ml/min. […] A:B 40:60 v/v. […] A:B 90:10 v/v; 4–8 min. linear-gradient from 90% A to A:B 60:40 v/v; 8–12 min. A:B 60:40 v/v.
(§3) The biologic hydrolysis of the esters 1–12 was carried out using rat plasma and rat liver microsomes. Each compound's half-life (t1/2) was calculated using the expression t1/2 = 0.693/a, as previously described.

[3] = Base-catalysed (alkaline) hydrolysis with LiOH in THF:H2O; details: for half-life at 2.5 g/L: LiOH in tetrahydrofuran/water (6:4)
Method: (§4) The reaction was started by adding LiOH (24 μL, 1 mol/l), and the mixture was incubated at 37 °C for 5, 10, 20, and 30 min, under stirring in a water bath. At the end of the incubation period, an aliquot (20 μL) was transferred to a new tube, and subsequently, HCl (0.3 μL, 10% v:v) was added. The pH of the sample was checked to verify neutralisation, and acetonitrile (480 μL) was added. The final concentrations of all compounds in the solution were 2,5 g/L. Finally, the samples were filtered through PVDF syringe filters (Millex®: 0.22 µm pore size) and analysed by HPLC[15].
as §2
(§5) The time in minutes required to reduce half the initial amount of each ester compound (i.e., half-life - t1/2) was calculated using the expression t1/2 = 0.693/a, with "a" being the slope of the natural log of concentration of the sample vs. the incubation time.

carboxylesterase (CES) = assay: Enzymatic inhibition study in rat plasma with CES inhibitor bis(p-nitrophenyl)phosphate; assay type: in vitro ADME; details: bis(p-nitrophenyl)phosphate 1, 10, 100 µM; ester 500 µM, 90 min
Method: The inhibitor was pre-incubated for 30 min at 37 °C, with (i) plasma (ii) rat liver microsomes and phosphate buffer pH 7,4 (final volume of 250 µL). […] The mixture was incubated again at 37 °C for 90 min under agitation. The analysis was performed by the same HPLC method used in the previous experiments. […] Data were expressed as percentages of inhibition.

[4] = buffer
Method: as §4, §2, §5

[5] = pH 7.4
Method: as §1, §2, §3

[6] = Hydrolysis t1/2 Alkaline, LiOH, THF:H2O, 37 °C

Work on `COC(=O)c1ccccc1` [Compound 1, methyl benzoate] yielded a half-life [1] of 15 min, a half-life at 500 μM [2] of 36 min and a half-life at 2.5 g/L [3] of 14 min.

For `CCOC(=O)c1ccccc1` [Compound 2, ethyl benzoate], the half-life [1] was 12 min, the “Metabolism in rat plasma in the presence of the CES inhibitor” value (carboxylesterase (CES)) was “strongly reduced” and the half-life at 500 μM [2] was 17 min. The half-life at 2.5 g/L [3, 6] was 15 min and the “Hydrolysis t1/2 Alkaline” value ([3]; LiOH, THF:H2O, 37 °C) was 14 min.

`CCCOC(=O)c1ccccc1` [Compound 3, n-propyl benzoate] showed a half-life at 500 μM [2] of 10 min and a half-life at 2.5 g/L [3] of 19 min.

With `CCCCOC(=O)c1ccccc1` [Compound 4, n-butyl benzoate] the half-life at 500 μM [2] was 10 min and the half-life at 2.5 g/L [3] was 21 min.

Work on `O=C(Oc1ccccc1)c1ccccc1` [Compound 5, phenyl benzoate] yielded a half-life [1] of 10 min, a half-life at 500 μM [2] of 7 min and a half-life at 2.5 g/L [3] of 11 min.

`O=C(OCc1ccccc1)c1ccccc1` [Compound 6, benzyl benzoate] showed a half-life [1] of 13 min, a half-life at 500 μM [2] of 12 min and a half-life at 2.5 g/L [3] of 16 min.

With `COC(=O)Cc1ccccc1` [Compound 8, methyl 2-phenylacetate] the half-life at 500 μM [2] was 3 min, the “Loss of plasma metabolic stability relative to ester 1” value ([2]; rat plasma, versus ester 1) was “twelve times less stable” and the half-life at 2.5 g/L [3, 6] was 39 min.

Molecule `CC(=O)Oc1ccccc1` [Compound 9] has a half-life at 500 μM [2] of 19 min and a half-life at 2.5 g/L [3, 6] of 58 min.

`CCOC(=O)c1ccccc1Br` [Compound 10, ethyl 2-bromobenzoate] showed a half-life at 500 μM [2] of 10 min and a half-life at 2.5 g/L [3] of 15 min.

`CCOC(=O)c1cccc(Br)c1` [Compound 11, ethyl 3-bromobenzoate] showed a half-life [1] of 12 min, a half-life at 500 μM [2] of 11 min and a half-life at 2.5 g/L [3] of 25 min.

`CCOC(=O)c1ccc(Br)cc1` [Compound 12, ethyl 4-bromobenzoate] showed a half-life [1] of 10 min, a half-life at 500 μM [2] of 12 min and a half-life at 2.5 g/L [3] of 12 min.

Work on `CCOC(=O)c1ccc(N)cc1` [Compound 13, ethyl 4-aminobenzoate, reference compound] yielded a half-life at 500 μM [2] of 13 min.

Work on `COC(=O)c1ccc(N)cc1` [Compound 14, methyl 4-aminobenzoate] yielded a half-life at 500 μM [2] of 27 min.

With `CCOC(=O)c1ncn2c1CN(C)C(=O)c1cc(F)ccc1-2` [Compound 15, flumazenil, reference compound] the half-life at 500 μM [2] was 89 min and the “Times less stable to plasma hydrolysis than methyl homologous 16” value ([2]; rat plasma, versus 16) was 2.7 times.

For `COC(=O)c1ncn2c1CN(C)C(=O)c1cc(F)ccc1-2` [Compound 16, methyl 8-fluoro-5-methyl-6-oxo-4H-imidazo[1,5-a][1,4]benzodiazepine-3-carboxylate], the half-life at 500 μM [2] was 238 min.

In the case of methyl 2-naphthoate [Compound 7], the “Hydrolysis t1/2 Alkaline” value [4] is reported as 29 min and the “Hydrolysis t1/2 Rat plasma” value [5] is reported as 17 min.
